The text below walks through data of patent US9650399B2, “Salicylic acid derivatives, pharmaceutically acceptable salt thereof, composition thereof and method of use thereof” (The Governing Council of the University of Toronto, priority 2012, dated 2017).

One series addresses His-tagged STAT5. Kind of series: surface plasmon resonance (SPR) binding, STAT5. Also noted: species or system human. Particulars: SPR control experiment. How it is done: Interactions of His-tagged STAT3 with small molecules were investigated using SPR spectroscopy. The binding experiments were carried out on a ProteOn XPR36 (Bio-Rad) biosensor at 25° C. using the HTE sensor chip (Bio-Rad, Ontario, Canada). The flow cells of the sensor chip were loaded with a nickel solution at 30 μL/min for 120 s to saturate the Tris NTA surface with Ni(II) ions. Purified His-tagged STAT3 and STAT5 (SignalChem, British Columbia, Canada) in PBST buffer (PBS with 0.005% (v/v) Tween-20 and 0.001% DMSO pH 7.4) was injected in the first and second channels of the chip respectively in the vertical direction at a flow rate of […] for 300 s, which attained, on average, 8000 resonance unit (RU). After a wash with PBST buffer, inhibitors binding to the immobilized proteins were monitored by injecting a range of concentrations along with a blank at a flow rate of 100 μL/min for 200 s for each of these small molecules. When the injection of the small molecule inhibitor was completed, running buffer was allowed to flow over the immobilized substrates for the non-specifically bound inhibitors to dissociate for 600 s. Following dissociation of the inhibitors, the chip surface was regenerated with an injection of 1 M NaCl at a flow rate of […] for 18 s. […] Data were analyzed using ProteOn Manager Software version 3.1. […]

For the next series, the system named is BTSC30M. Kind of series: alamarBlue cell viability, BTSC 30M. Particulars: BTSC 30M. Type of series: cell-based, human. The method in brief:
(§1)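 Patient-derived GBM brain tumour stem cells, dissociated spheres seeded at 1500 cells/96-well, or 3000 cells/96-well in one setup. Drug or DMSO vehicle added one day after plating. Viability read by alamarBlue after 72 hrs, triplicate wells.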

For series [1] the following is noted: cited from earlier work.
The test system of another series is BTSC73M. Kind of series: alamarBlue cell viability, BTSC 73M. Type of series: cell-based, human. To be noted: BTSC 73M. The essentials:
as §1

Regarding `CC(C)C[C@H](NC(=O)[C@@H](N)Cc1ccc(OP(=O)(O)O)cc1)C(=O)N1CCC[C@H]1C(=O)N[C@@H](CCC(N)=O)C(=O)N[C@H](C(=O)N[C@H](C(N)=O)C(C)C)[C@@H](C)O` [STAT3 peptide sequence], the “KD (STAT5)” value at His-tagged STAT5 is given as “No binding”.

On to “Cucurbitacin [Cucurbitacin 1, reference compound]”, for which the EC50 in the series on BTSC30M (read-out: EC50 v.s. 30M) turned out to be 0.63 µM; in the series with BTSC73M (read-out: EC50 v.s. 73M) it was 0.7 µM. The IC50 in the series with BTSC30M (read-out: IC50 (μM) 30M, Table 2, alamarBlue, 72 hrs) worked out at 0.63 ± 0.08 µM; with BTSC73M (Table 2, alamarBlue, 72 hrs, read-out: IC50 (μM) 73M) it was 0.7 ± 0.06 µM. In addition, the BBB permeability entry in series [1] is “poor BBB permeability”.
